# From PubChem BioAssay (NCI)
#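 Grown in 96-well plates, cells were treated for 48 hours with each compound at five concentrations. Insufficient inhibition: endpoint recorded as highest concentration tested. Here, GI50 denotes the concentration required for 50% inhibition of growth. TGI: concentration producing complete growth inhibition.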
# Tests used:
# Test in all cases: growth of human tumour cells (NCI), 48 h
# [1] = test system: 786-0 renal
# [2] = test system: A498 renal
# [3] = test system: A549 NSCLC
# [4] = test system: ACHN renal
# [5] = test system: BT-549 breast
# [6] = test system: CAKI-1 renal
# [7] = test system: CCRF-CEM leukemia
# [8] = test system: COLO 205 colon
# [9] = test system: DU-145 prostate
# [10] = test system: HCC-2998 colon
# [11] = test system: HCT-116 colon
# [12] = test system: HCT-15 colon
# [13] = test system: HL-60(TB) leukemia
# [14] = test system: HOP-62 NSCLC
# [15] = test system: HOP-92 NSCLC
# [16] = test system: HS 578T breast
# [17] = test system: HT29 colon
# [18] = test system: IGROV1 ovarian
# [19] = test system: K-562 leukemia
# [20] = test system: KM12 colon
# [21] = test system: LOX IMVI melanoma
# [22] = test system: M14 melanoma
# [23] = test system: MALME-3M melanoma
# [24] = test system: MCF7 breast
# [25] = test system: MDA-MB-231 breast
# [26] = test system: MDA-MB-435
# [27] = test system: NCI-H226 lung
# [28] = test system: NCI-H23 lung
# [29] = test system: NCI-H460 lung
# [30] = test system: NCI-H522 lung
# [31] = test system: NCI/ADR-RES ovarian
# [32] = test system: OVCAR-3 ovarian
# [33] = test system: OVCAR-4 ovarian
# [34] = test system: OVCAR-5 ovarian
# [35] = test system: OVCAR-8 ovarian
# [36] = test system: PC-3 prostate
# [37] = test system: RPMI-8226 leukemia
# [38] = test system: RXF 393 renal
# [39] = test system: SF-268 CNS
# [40] = test system: SF-295 CNS
# [41] = test system: SF-539 CNS
# [42] = test system: SK-MEL-2 melanoma
# [43] = test system: SK-MEL-28 melanoma
# [44] = test system: SK-MEL-5 melanoma
# [45] = test system: SK-OV-3 ovarian
# [46] = test system: SN12C renal
# [47] = test system: SNB-19 CNS
# [48] = test system: SNB-75 CNS
# [49] = test system: SR leukemia
# [50] = test system: SW-620 colon
# [51] = test system: T-47D breast
# [52] = test system: TK-10 renal
# [53] = test system: U251 CNS
# [54] = test system: UACC-257 melanoma
# [55] = test system: UACC-62 melanoma
# [56] = test system: UO-31 renal
# [57] = test system: MOLT-4 leukemia
smiles,measurement,setting,value
COC(=O)c1ccc(NC(=O)Oc2ccc(N(CCCl)CCCl)cc2)cc1,GI50,[1],4.95 µM
same,TGI,[1],25.6 µM
same,GI50,[2],3.35 µM
same,TGI,[2],14.9 µM
same,GI50,[3],1.65 µM
same,TGI,[3],> 100 µM
same,GI50,[4],1.4 µM
same,TGI,[4],16.4 µM
same,GI50,[5],10.2 µM
same,TGI,[5],> 100 µM
same,GI50,[6],0.434 µM
same,TGI,[6],7.36 µM
same,GI50,[7],0.782 µM
same,TGI,[7],> 100 µM
same,GI50,[8],9.88 µM
same,TGI,[8],> 100 µM
same,GI50,[9],3.6 µM
same,TGI,[9],19.9 µM
same,GI50,[10],29.1 µM
same,TGI,[10],> 100 µM
same,GI50,[11],11.2 µM
same,TGI,[11],> 100 µM
same,GI50,[12],11.2 µM
same,TGI,[12],> 100 µM
same,GI50,[13],0.867 µM
same,TGI,[13],11.6 µM
same,GI50,[14],3.99 µM
same,TGI,[14],24.8 µM
same,GI50,[15],14.3 µM
same,TGI,[15],53.4 µM
same,GI50,[16],18.8 µM
same,TGI,[16],97.9 µM
same,GI50,[17],16.5 µM
same,TGI,[17],> 100 µM
same,GI50,[18],11.8 µM
same,TGI,[18],59.8 µM
same,GI50,[19],4.85 µM
same,TGI,[19],> 100 µM
same,GI50,[20],24.4 µM
same,TGI,[20],> 100 µM
same,GI50,[21],3.69 µM
same,TGI,[21],> 100 µM
same,GI50,[22],5.97 µM
same,TGI,[22],> 100 µM
same,GI50,[23],18.4 µM
same,TGI,[23],71.1 µM
same,GI50,[24],1.6 µM
same,TGI,[24],> 100 µM
same,GI50,[25],20.1 µM
same,TGI,[25],> 100 µM
same,GI50,[26],11.5 µM
same,TGI,[26],> 100 µM
same,GI50,[27],12.1 µM
same,TGI,[27],50.6 µM
same,GI50,[28],4.75 µM
same,TGI,[28],> 100 µM
same,GI50,[29],0.386 µM
same,TGI,[29],14.9 µM
same,GI50,[30],3.47 µM
same,TGI,[30],16.3 µM
same,GI50,[31],6.54 µM
same,TGI,[31],53.8 µM
same,GI50,[32],7.77 µM
same,TGI,[32],22.3 µM
same,GI50,[33],13.8 µM
same,TGI,[33],38.2 µM
same,GI50,[34],30.8 µM
same,TGI,[34],> 100 µM
same,GI50,[35],4.34 µM
same,TGI,[35],84.6 µM
same,GI50,[36],11.4 µM
same,TGI,[36],> 100 µM
same,GI50,[37],6.5 µM
same,TGI,[37],> 100 µM
same,GI50,[38],6.28 µM
same,TGI,[38],32.3 µM
same,GI50,[39],1.94 µM
same,TGI,[39],18.5 µM
same,GI50,[40],1.38 µM
same,TGI,[40],11.4 µM
same,GI50,[41],2.92 µM
same,TGI,[41],18.9 µM
same,GI50,[42],20 µM
same,TGI,[42],52.5 µM
same,GI50,[43],30.7 µM
same,TGI,[43],> 100 µM
same,GI50,[44],13.1 µM
same,TGI,[44],> 100 µM
same,GI50,[45],4.41 µM
same,TGI,[45],29.5 µM
same,GI50,[46],2.97 µM
same,TGI,[46],94.1 µM
same,GI50,[47],5.17 µM
same,TGI,[47],> 100 µM
same,GI50,[48],6.16 µM
same,TGI,[48],54.5 µM
same,GI50,[49],0.394 µM
same,TGI,[49],> 100 µM
same,GI50,[50],4.89 µM
same,TGI,[50],> 100 µM
same,GI50,[51],2.87 µM
same,TGI,[51],50.8 µM
same,GI50,[52],21.6 µM
same,TGI,[52],58.9 µM
same,GI50,[53],3.09 µM
same,TGI,[53],41.4 µM
same,GI50,[54],7.73 µM
same,TGI,[54],99.7 µM
same,GI50,[55],3.36 µM
same,TGI,[55],23.5 µM
same,GI50,[56],4.86 µM
same,TGI,[56],29.7 µM
Cn1cc(C2=C(c3cn(CCCCCSC(=N)N)c4ccccc34)C(=O)NC2=O)c2ccccc21,GI50,[1],3.16 µM
same,TGI,[1],7 µM
same,GI50,[2],3.65 µM
same,TGI,[2],6.97 µM
same,GI50,[3],4.4 µM
same,TGI,[3],8.65 µM
same,GI50,[4],3.54 µM
same,TGI,[4],6.94 µM
same,GI50,[5],3.65 µM
same,TGI,[5],7.12 µM
same,GI50,[6],4.03 µM
same,TGI,[6],7.94 µM
same,GI50,[7],1.93 µM
same,TGI,[7],5.87 µM
same,GI50,[8],1.24 µM
same,TGI,[8],4.68 µM
same,GI50,[9],3.58 µM
same,TGI,[9],6.93 µM
same,GI50,[10],3.56 µM
same,TGI,[10],7.19 µM
same,GI50,[11],1.08 µM
same,TGI,[11],4.53 µM
same,GI50,[12],3.8 µM
same,TGI,[12],8.03 µM
same,GI50,[13],3.62 µM
same,TGI,[13],7.85 µM
same,GI50,[14],3.96 µM
same,TGI,[14],7.59 µM
same,GI50,[15],3.27 µM
same,TGI,[15],7.21 µM
same,GI50,[16],2.24 µM
same,TGI,[16],11.1 µM
same,GI50,[17],1.11 µM
same,TGI,[17],4.03 µM
same,GI50,[18],3.51 µM
same,TGI,[18],7.93 µM
same,GI50,[19],1.49 µM
same,TGI,[19],5.31 µM
same,GI50,[20],2.08 µM
same,TGI,[20],5.41 µM
same,GI50,[21],2.92 µM
same,TGI,[21],6.48 µM
same,GI50,[22],3.23 µM
same,TGI,[22],6.87 µM
same,GI50,[23],4.25 µM
same,TGI,[23],8.08 µM
same,GI50,[24],1.22 µM
same,TGI,[24],4.97 µM
same,GI50,[25],3.91 µM
same,TGI,[25],7.49 µM
same,GI50,[26],1.06 µM
same,TGI,[26],4.07 µM
same,GI50,[57],2.06 µM
same,TGI,[57],6.25 µM
same,GI50,[27],4.09 µM
same,TGI,[27],9.96 µM
same,GI50,[28],3.5 µM
same,TGI,[28],7.56 µM
same,GI50,[29],3.73 µM
same,TGI,[29],7.75 µM
same,GI50,[30],1.92 µM
same,TGI,[30],5.59 µM
same,GI50,[31],8.18 µM
same,TGI,[31],21 µM
same,GI50,[32],3.22 µM
same,TGI,[32],6.55 µM
same,GI50,[33],3.16 µM
same,TGI,[33],7.32 µM
same,GI50,[34],4.48 µM
same,TGI,[34],8.26 µM
same,GI50,[35],3.61 µM
same,TGI,[35],10.4 µM
same,GI50,[36],2.68 µM
same,TGI,[36],6.02 µM
same,GI50,[37],4.13 µM
same,TGI,[37],9.61 µM
same,GI50,[38],2.55 µM
same,TGI,[38],5.68 µM
same,GI50,[39],3.86 µM
same,TGI,[39],7.8 µM
same,GI50,[40],1.76 µM
same,TGI,[40],5.38 µM
same,GI50,[41],3.51 µM
same,TGI,[41],6.77 µM
same,GI50,[42],3.13 µM
same,TGI,[42],6.43 µM
same,GI50,[43],3.55 µM
same,TGI,[43],7.17 µM
same,GI50,[44],3.28 µM
same,TGI,[44],6.67 µM
same,GI50,[45],2.99 µM
same,TGI,[45],6.16 µM
same,GI50,[46],2.67 µM
same,TGI,[46],6.01 µM
same,GI50,[47],3.52 µM
same,TGI,[47],6.82 µM
same,GI50,[48],1.01 µM
same,TGI,[48],4.36 µM
same,GI50,[49],0.79 µM
same,TGI,[49],2.24 µM
same,GI50,[50],2.96 µM
same,TGI,[50],6.54 µM
same,GI50,[51],3.46 µM
same,TGI,[51],9.63 µM
same,GI50,[52],2.66 µM
same,TGI,[52],5.71 µM
same,GI50,[53],2.5 µM
same,TGI,[53],5.65 µM
same,GI50,[54],4.01 µM
same,TGI,[54],7.47 µM
same,GI50,[55],3.87 µM
same,TGI,[55],7.25 µM
same,GI50,[56],3.62 µM
same,TGI,[56],7.29 µM
